Source: patent publication US10259827B2, “BMP potentiators” (NOVARTIS AG, priority 2016, dated 2019)
pIC50: −log10 of the molar value.

Legend:
[1] = tested on: C2C12-IDBRE-luciferase cells; assay: BMP activity, C2C12-IDBRE-luciferase reporter assay; format: cell-based; details: 24 hours after treatment, 100% activity = luminescence 200% of DMSO control, read-out: Qualified absolute AC50
Description: C2C12-IDBRE-luciferase reporter line was established by infecting C2C12 cells with lentiviruses with IDBRE-luciferase pLenti6 plasmid with Blasticidin resistance.
C2C12-IDBRE-luciferase cells were plated to 384-well plate at 5000 cells in 36 μl DMEM plus 10% FBS at day 0. Cells were treated with different doses of compounds at day 1. Bright-Glo™ Luciferase Assay (Promega, catalog # E2650) was performed with EnVision plate reader (PerkinElmer) 24 hours after treatment at day 2. 0% activity is equal to DMSO control. 100% activity means Luminescence reading for a compound is 200% of luminescence reading of DMSO control. The formula to calculate the activity is: 100*(Luminescence_compound−Luminescence_DMSO)/Luminescence_DMSO

[2] = tested on: 293T-NFAT-luciferase cells; assay: Calcineurin inhibition, 293T-NFAT-luciferase reporter assay; format: cell-based; details: 293T-NFAT-luciferase cells co-treated with 100 ng/ml PMA and 1 μM Ionomycin, 24 hours after treatment; read-out: NFAT-luc IC50
Description: NFAT-luciferase reporter line was established by transfecting NFAT-luciferase/pTranslucent (Panomics #LR0050) and Puromycin-resistance plasmid together into 293T cells.
293T-NFAT-luciferase cells were plated to 384-well plate at 10000 cells in 32 μl DMEM plus 10% FBS at day 0. Cells were treated with different doses of compounds at day 1. Half an hour after compound treatment, 293T-NFAT-luciferase cells were co-treated with 100 ng/ml PMA (PHORBOL 12-MYRISTATE 13-ACETAT, Sigma, catalog #P8139-1MG) and 1 μM Ionomycin (Sigma, catalog #10634-1MG). Bright-Glo™ Luciferase Assay (Promega, catalog # E2650) was performed with EnVision plate reader (PerkinElmer) 24 hours after treatment at day 2.

Row | SMILES | AC50 [1] [nM] | pIC50 [2]
1 | CO[C@H]1C[C@@H](C)C/C(C)=C/[C@@H](C/C=C/C2(O)COC2)C(=O)C[C@H](O)[C@@H](C)[C@@H](/C(C)=C/[C@@H]2CC[C@@H](O)[C@H](OC)C2)OC(=O)[C@@H]2CCCCN2C(=O)C(=O)[C@]2(O)O[C@H]1[C@@H](OC)C[C@H]2C [Compound A] | 91 | < 4.30
2 | CC[C@H]1C(=O)C[C@H](O)[C@@H](C)[C@@H](/C(C)=C/[C@@H]2CC[C@@H](O)[C@H](OC)C2)OC(=O)[C@@H]2CCCCN2C(=O)C(=O)[C@]2(O)O[C@H]([C@@H](OC)C[C@@H](C)C[C@@]3(C)O[C@H]13)[C@@H](OC)C[C@H]2C [Compound B] | 24 | < 4.30
3 | CC[C@H]1C(=O)C[C@H](O)[C@@H](C)[C@@H](/C(C)=C/[C@@H]2CC[C@@H](O)[C@H](OC)C2)OC(=O)[C@@H]2CCCCN2C(=O)C(=O)[C@]2(O)O[C@H]([C@@H](OC)C[C@@H](C)C[C@]3(C)O[C@@H]13)[C@@H](OC)C[C@H]2C [Compound C] | 201 | 7.48
4 | C=CC[C@@H]1/C=C(\C)C[C@H](C)C[C@H](OC)[C@H]2O[C@@](O)(C(=O)C(=O)N3CCCC[C@H]3C(=O)O[C@H](/C(C)=C/[C@@H]3CC[C@@H](O)[C@H](OC)C3)[C@H](C)[C@@H](O)CC1=O)[C@H](C)C[C@@H]2OC [FK-506, reference compound] | 24 | 10.30
